System: NF-kB
Assay: Inhibition of NF-kB by D-amino-acid and cyclized peptides
Description: The following acetylated peptides, composed of D amino acids, were synthesized and tested for inhibition of NF-kB: 1) Ac-dGln-dALa-dTrp (SEQ ID NO:9); and 2) Ac-dPhe-dLeu-dLys-dGln-dALa-dTrp (SEQ ID NO:10). […] The following acetylated peptide, cyclized through its N- and C-terminals, was synthesized and tested for inhibition of NF-kB: Ac-Phe-Leu-Lys-Gln-Ala-Trp (SEQ ID NO:6).

| Substance | inhibition of NF-kB |
| --- | --- |
| Ac-Phe-Leu-Lys-Gln-Ala-Trp (Ac-cyclo(FLKQAW)) | effective inhibition of NF-kB |
| Ac-dGln-dALa-dTrp | effective inhibition of NF-kB |
| Ac-dPhe-dLeu-dLys-dGln-dALa-dTrp | effective inhibition of NF-kB |

From patent publication US20130261066A1, “TREATMENT OF INFLAMMATORY BOWEL DISEASES USING A TRIPEPTIDE” (THE RESEARCH FOUNDATION OF STATE UNIVERSITY OF NEW YORK, priority 2010, published 2013)
